Data: US20250017907A1, “METHOD FOR PREVENTING AND/OR TREATING LIVER FIBROSIS BY USING 6-METHOXYBENZOXAZOLINONE AND COIX LACHRYMA-JOBI L. EXTRACT COMPRISING 6-METHOXYBENZOXAZOLINONE” (Taichung District Agricultural Research and Extension …, priority 2023, published 2025)

Tests used:
[1] = system: TAA-induced liver fibrotic C57BL/6J mice; assay: Liver weight, body weight and liver index; type: in vivo; details: CX groups (20 and 50 mg/kg oral, 6 weeks); vs TAA group
Method: (§1) For tests of adlay extracts, mice were randomly divided into the following seven groups (n=6, per group): (1) No treatment group (NT, normal diet), (2) Thioacetamide group (TAA, 200 mg/kg, normal diet), (3) 10% adlay seed powder (ASP) group, (4) 1% adlay leaf powder (ALP) group, (5) 1% adlay seed polysaccharide (ASPS) group, (6) 0.025% adlay seed ethanolic extract (ASE) group and (7) 0.1% ASE group. NT group received pure saline, and other groups intraperitoneally injected with TAA dissolved into saline thrice a week.
(§2) For tests of CX, mice were randomly divided into the following four groups (n=8, per group): (1) NT group, (2) TAA group (200 mg/kg), (3) CX group (CX20, 20 mg/kg), and (4) CX group (CX50, 50 mg/kg). NT group received pure saline, and other groups intraperitoneally injected with TAA dissolved into saline thrice a week. Moreover, NT group and TAA group also received 5% propylene glycol, while CX groups received CX dissolved into 5% propylene glycol (prepared in 0.9% saline) by oral gavage once per day.
The procedure of the schematic diagram of animal experiment design in adlay groups is described as follows. To examine the effects of adlay on liver fibrosis, this example established a TAA-induced liver fibrotic C57BL/6J mouse model. FIG. 1 is a schematic diagram of animal experiment design in adlay groups. In this experiment, C57BL/6J mice were intraperitoneally injected with thioacetamide (TAA) to induce liver fibrosis. At six weeks of age, the mice were randomly divided into seven groups fed with different diets (NT, TAA, 10% ASP, 1% ALP, 1% ASPS, 0.025% ASE and 0.1% ASE, n=6). After co-feeding for 6 weeks during which intraperitoneal injection of TAA was administered thrice a week, the mice were finally sacrificed at 12 weeks of age. NT represents no treatment, ASP represents adlay seed powder, ALP represents adlay leaf powder, ASPS represents adlay seed polysaccharide, and ASE represents adlay seed ethanolic extract. […]

[2] = system: TAA-induced liver fibrotic C57BL/6J mice; assay: Serum biochemical analysis (liver function and nutrient metabolism); type: in vivo; details: CX groups (20 and 50 mg/kg oral, 6 weeks); vs TAA group
Method: as §1, §2
At the end of the experiment, the mice were sacrificed. Serum was obtained from the whole blood of mice after centrifuging and stored at −80° C., and the liver tissues were collected and used for the tissue histological staining.
The procedure of biochemical analysis is as follows. The levels of serum alanine aminotransferase (ALT), aspartate aminotransferase (AST), total bilirubin (TBIL), alkaline phosphatase (ALP), total cholesterol (TC), total glyceride (TG), and glucose were measured with the chemistry analyzer. Briefly, after centrifuging the whole blood from mice, collected the serum, dropped the serum at the tested chips for analysis with an Automated Clinical Chemistry Analyzer (Fuji, Japan).

[3] = system: TAA-induced liver fibrotic C57BL/6J mice; assay: Real-time PCR of liver fibrotic and inflammatory genes; type: in vivo; details: CX groups (20 and 50 mg/kg oral, 6 weeks); vs TAA group
Method: as §1, §2
The procedure of real-time PCR analysis is as follows. Total RNA was extracted with the Trizol reagent (Ambion, USA) and then reverse-transcribed into cDNA with RevertAid First Strand cDNA Synthesis kit (Thermo Scientific, USA). The PCR amplification was accomplished with SYBR Green PCR Master Mix (Applied Biosystems, USA), and the mRNA expression of the gene was normalized to GAPDH. All primers were obtained from Genomics (Genomics, Taiwan). Rat primer sequences are used for real-time PCR of HSC-T6 cells, and mouse primer sequences are used for real-time PCR of C57BL/6J mice.

HSC-T6 cells = assay: MTT cell viability assay; type: cell-based, rat; details: 0-800 μM, 24 h
Method: The procedure of cell cultures is as follows. HSC-T6 cell is an immortalized cell line isolated from transformed SV40 large T-antigen transformed primary stellate cells of male Sprague-Dawley rats. HSC-T6 cells were maintained in Dulbecco's Modified Eagle Medium (DMEM, Sigma-Aldrich, USA) containing 8% fetal bovine serum (FBS, HyClone, USA), 100 U/mL of penicillin, and 100 μg/mL of streptomycin (Gibco, USA).
The procedure of cell viability assay is as follows. HSC-T6 cells were seed at 1.5×10^4 in 96-well plates and were incubated with CX (0-800 μM) or adlay extracts (0-800 μg/mL) for 24 h. Followed by the determination of cell viability with MTT [3-(4,5-Dimethyl-2-thiazolyl)-2,5-diphenyl-2H-tetrazolium bromide] (Sigma-Aldrich, USA). Briefly, MTT was added to each well at a final concentration of […] and was incubated at 37° C. for 1 h. Next, removed the MTT and added the DMSO to dissolve MTT-formazan crystals formed by metabolically viable cells. Finally, the absorbance of each well was detected by a spectrophotometer at the wavelength of 570 nm.

SMILES: COc1ccc2[nH]c(=O)oc2c1 [CX, 6-methoxybenzoxazolinone]
- change in body weight caused by TAA [1]: did not significantly improve
- liver index (ratio of liver weight to body weight) [1]: decreased significantly
- liver weight [1]: reduced
- changes in serum TC level caused by TAA [2]: significantly reduced
- changes in serum TG level caused by TAA [2]: significantly reduced
- changes in serum glucose level caused by TAA [2]: significantly reduced
- serum ALP [2]: decreased significantly
- serum ALT [2]: decreased significantly
- serum AST [2]: decreased significantly
- serum TBIL [2]: decreased significantly
- TAA-induced downregulation of liver IL-10 mRNA level [3]: significantly decreased
- TAA-induced upregulation of liver COL1A1 mRNA [3]: significantly decreased
- TAA-induced upregulation of liver IL-6 mRNA level [3]: significantly decreased
- TAA-induced upregulation of liver TNF-α mRNA level [3]: significantly decreased
- TAA-induced upregulation of liver α-SMA mRNA [3]: significantly decreased
- dose with no significant effects on cell viability (HSC-T6 cells): below 400 μM
